Tests used:
Test in all cases: biochemical
[1] = target: T1, panel of 374 wild-type kinases (Homo sapiens, UniProt P35916); conditions: read-out: % Enzyme Activity (relative to DMSO controls), FLT4/VEGFR3
T1 construct: purchased Reaction Biology Corporation

[2] = target: T2, panel of 374 wild-type kinases (Homo sapiens, UniProt Q04771); conditions: read-out: % Enzyme Activity (relative to DMSO controls), ALK2/ACVR1
T2 construct: purchased Reaction Biology Corporation
T2 sequence (Q04771 21-509): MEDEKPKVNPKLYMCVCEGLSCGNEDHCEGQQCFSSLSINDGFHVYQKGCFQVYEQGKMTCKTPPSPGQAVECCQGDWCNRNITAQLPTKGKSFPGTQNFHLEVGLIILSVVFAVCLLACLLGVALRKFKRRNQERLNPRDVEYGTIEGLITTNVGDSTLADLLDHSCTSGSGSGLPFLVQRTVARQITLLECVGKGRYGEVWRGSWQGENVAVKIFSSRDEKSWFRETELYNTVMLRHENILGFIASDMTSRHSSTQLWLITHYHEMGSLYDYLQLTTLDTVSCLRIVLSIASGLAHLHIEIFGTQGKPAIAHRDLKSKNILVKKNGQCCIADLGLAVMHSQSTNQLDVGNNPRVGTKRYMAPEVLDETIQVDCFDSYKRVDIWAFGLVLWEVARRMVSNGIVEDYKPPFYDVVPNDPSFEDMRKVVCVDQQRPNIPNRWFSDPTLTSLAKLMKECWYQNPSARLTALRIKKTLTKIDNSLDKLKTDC

[3] = target: T3, panel of 374 wild-type kinases (Homo sapiens, UniProt O15530); conditions: read-out: % Enzyme Activity (relative to DMSO controls), kinase PDK1/PDPK1
T3 construct: purchased Reaction Biology Corporation
T3 sequence (O15530 1-556): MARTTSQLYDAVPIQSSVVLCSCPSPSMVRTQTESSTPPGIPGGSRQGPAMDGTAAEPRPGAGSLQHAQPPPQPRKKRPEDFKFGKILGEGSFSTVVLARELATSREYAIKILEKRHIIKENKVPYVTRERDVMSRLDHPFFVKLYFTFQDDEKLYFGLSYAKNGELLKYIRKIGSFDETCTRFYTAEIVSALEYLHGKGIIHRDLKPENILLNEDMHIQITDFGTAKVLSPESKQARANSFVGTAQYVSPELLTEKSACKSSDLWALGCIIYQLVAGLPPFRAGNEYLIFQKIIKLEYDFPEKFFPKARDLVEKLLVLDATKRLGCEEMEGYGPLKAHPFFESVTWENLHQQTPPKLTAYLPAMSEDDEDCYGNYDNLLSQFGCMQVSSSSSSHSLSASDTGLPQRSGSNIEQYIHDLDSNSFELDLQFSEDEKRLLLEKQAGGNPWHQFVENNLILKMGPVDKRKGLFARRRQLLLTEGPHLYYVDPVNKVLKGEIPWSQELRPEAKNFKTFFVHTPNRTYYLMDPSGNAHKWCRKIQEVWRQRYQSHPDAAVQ

[4] = target: T4, panel of 374 wild-type kinases (Homo sapiens, UniProt Q96SB4); conditions: read-out: % Enzyme Activity (relative to DMSO controls), kinase SRPK1
T4 construct: purchased Reaction Biology Corporation
T4 sequence (Q96SB4 whole entry): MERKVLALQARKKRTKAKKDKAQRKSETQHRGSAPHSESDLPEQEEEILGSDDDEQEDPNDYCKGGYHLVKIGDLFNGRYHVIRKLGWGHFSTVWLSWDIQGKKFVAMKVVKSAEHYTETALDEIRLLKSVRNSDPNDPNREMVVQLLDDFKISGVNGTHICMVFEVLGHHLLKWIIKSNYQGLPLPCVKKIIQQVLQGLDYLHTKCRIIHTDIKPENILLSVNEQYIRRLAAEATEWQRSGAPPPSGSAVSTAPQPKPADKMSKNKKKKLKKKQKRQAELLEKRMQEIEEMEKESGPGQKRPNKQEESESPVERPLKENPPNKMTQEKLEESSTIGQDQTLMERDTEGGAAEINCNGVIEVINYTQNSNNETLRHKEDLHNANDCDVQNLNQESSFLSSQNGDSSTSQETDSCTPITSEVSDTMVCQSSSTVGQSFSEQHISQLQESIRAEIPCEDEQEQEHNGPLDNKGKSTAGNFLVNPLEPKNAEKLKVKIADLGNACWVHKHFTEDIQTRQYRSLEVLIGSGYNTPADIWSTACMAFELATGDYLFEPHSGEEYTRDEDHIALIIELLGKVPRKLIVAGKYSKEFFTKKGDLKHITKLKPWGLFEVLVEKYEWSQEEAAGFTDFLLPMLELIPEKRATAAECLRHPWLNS

[5] = target: T5, panel of 374 wild-type kinases (Homo sapiens, UniProt P05129); conditions: read-out: % Enzyme Activity (relative to DMSO controls), kinase PKCg
T5 construct: purchased Reaction Biology Corporation

[6] = target: T6, panel of 374 wild-type kinases (Homo sapiens, UniProt Q9UPE1); conditions: read-out: % Enzyme Activity (relative to DMSO controls), MSSK1/STK23
T6 construct: purchased Reaction Biology Corporation
T6 sequence (Q9UPE1 whole entry): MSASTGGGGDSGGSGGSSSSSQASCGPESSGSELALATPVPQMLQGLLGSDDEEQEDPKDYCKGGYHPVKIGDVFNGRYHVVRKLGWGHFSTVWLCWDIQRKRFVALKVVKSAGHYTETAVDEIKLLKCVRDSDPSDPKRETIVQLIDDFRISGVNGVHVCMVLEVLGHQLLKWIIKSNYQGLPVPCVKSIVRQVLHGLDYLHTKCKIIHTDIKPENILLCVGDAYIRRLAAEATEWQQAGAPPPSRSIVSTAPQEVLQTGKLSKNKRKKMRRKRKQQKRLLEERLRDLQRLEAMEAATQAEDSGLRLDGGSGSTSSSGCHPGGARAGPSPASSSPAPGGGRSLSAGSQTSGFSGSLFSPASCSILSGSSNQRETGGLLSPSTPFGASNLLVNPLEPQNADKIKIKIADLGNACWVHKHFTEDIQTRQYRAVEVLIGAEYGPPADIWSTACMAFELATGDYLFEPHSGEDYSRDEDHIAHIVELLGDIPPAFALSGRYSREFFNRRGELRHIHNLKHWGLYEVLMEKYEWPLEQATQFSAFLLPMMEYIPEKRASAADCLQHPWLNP

[7] = target: T7, panel of 374 wild-type kinases (Homo sapiens, UniProt O75676); conditions: read-out: % Enzyme Activity (relative to DMSO controls), MSK2/RPS6KA4
T7 construct: purchased Reaction Biology Corporation

[8] = target: T8, panel of 374 wild-type kinases (Homo sapiens, UniProt P17948); conditions: read-out: % Enzyme Activity (relative to DMSO controls), FLT1/VEGFR1
T8 construct: purchased Reaction Biology Corporation

[9] = target: T9, panel of 374 wild-type kinases (Homo sapiens, UniProt P16591); conditions: read-out: % Enzyme Activity (relative to DMSO controls), FER
T9 construct: purchased Reaction Biology Corporation
T9 sequence (P16591 whole entry): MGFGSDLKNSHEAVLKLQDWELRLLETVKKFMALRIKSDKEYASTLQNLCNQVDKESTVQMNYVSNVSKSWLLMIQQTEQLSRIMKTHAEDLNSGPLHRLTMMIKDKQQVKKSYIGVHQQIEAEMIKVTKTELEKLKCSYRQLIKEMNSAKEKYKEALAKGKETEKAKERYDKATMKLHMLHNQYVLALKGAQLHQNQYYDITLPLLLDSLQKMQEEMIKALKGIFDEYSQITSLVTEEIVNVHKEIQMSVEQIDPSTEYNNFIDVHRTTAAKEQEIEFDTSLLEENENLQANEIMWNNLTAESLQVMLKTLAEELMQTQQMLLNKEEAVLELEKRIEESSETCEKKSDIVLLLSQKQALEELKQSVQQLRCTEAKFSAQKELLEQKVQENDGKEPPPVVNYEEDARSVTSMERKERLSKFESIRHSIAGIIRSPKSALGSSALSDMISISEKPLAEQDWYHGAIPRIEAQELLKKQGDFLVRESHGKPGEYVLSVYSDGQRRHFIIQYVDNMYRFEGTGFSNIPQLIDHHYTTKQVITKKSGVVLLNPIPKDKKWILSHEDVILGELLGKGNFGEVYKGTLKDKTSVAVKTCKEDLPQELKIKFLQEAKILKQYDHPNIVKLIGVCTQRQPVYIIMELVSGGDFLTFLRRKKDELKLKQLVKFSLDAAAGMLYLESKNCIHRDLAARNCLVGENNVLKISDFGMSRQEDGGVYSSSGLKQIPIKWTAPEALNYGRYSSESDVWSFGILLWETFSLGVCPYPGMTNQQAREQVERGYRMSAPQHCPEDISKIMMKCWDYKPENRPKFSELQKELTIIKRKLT

[10] = target: T10, panel of 374 wild-type kinases (Homo sapiens, UniProt Q8TDX7); conditions: read-out: % Enzyme Activity (relative to DMSO controls), NEK7
T10 construct: purchased Reaction Biology Corporation
T10 sequence (Q8TDX7 whole entry): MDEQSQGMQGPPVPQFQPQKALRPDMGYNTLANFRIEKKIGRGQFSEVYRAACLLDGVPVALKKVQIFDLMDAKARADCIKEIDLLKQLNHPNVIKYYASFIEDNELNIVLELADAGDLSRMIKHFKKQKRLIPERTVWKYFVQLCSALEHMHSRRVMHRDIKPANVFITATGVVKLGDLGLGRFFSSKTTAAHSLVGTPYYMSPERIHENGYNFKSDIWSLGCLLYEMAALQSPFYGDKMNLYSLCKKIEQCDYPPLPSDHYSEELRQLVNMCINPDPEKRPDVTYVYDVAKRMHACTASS

[11] = target: T11, panel of 374 wild-type kinases (Homo sapiens, UniProt Q16832); conditions: read-out: % Enzyme Activity (relative to DMSO controls), DDR2
T11 construct: purchased Reaction Biology Corporation
T11 sequence (Q16832 22-855): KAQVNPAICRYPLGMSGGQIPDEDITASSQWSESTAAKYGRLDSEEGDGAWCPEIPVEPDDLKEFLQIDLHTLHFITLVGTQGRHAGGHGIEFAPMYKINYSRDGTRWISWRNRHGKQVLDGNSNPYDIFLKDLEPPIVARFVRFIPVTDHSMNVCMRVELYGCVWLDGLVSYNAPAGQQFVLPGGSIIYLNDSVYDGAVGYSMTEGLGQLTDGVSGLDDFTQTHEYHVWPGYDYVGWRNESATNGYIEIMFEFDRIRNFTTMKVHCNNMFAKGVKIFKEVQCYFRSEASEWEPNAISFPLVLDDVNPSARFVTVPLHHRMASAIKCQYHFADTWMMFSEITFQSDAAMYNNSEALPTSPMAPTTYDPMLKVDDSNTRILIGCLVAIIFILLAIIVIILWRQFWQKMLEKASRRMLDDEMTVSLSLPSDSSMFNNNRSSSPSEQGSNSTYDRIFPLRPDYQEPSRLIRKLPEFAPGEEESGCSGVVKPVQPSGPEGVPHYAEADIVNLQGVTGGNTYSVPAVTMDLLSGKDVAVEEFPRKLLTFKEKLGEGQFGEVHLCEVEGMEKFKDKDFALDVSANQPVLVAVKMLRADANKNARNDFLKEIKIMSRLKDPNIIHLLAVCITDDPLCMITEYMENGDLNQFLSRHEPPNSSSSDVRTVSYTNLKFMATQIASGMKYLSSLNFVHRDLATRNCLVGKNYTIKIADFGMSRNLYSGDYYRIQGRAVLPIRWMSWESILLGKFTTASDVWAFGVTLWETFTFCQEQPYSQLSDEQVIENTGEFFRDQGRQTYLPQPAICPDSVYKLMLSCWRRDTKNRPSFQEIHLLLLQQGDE

T1 sequence (P35916 25-1363): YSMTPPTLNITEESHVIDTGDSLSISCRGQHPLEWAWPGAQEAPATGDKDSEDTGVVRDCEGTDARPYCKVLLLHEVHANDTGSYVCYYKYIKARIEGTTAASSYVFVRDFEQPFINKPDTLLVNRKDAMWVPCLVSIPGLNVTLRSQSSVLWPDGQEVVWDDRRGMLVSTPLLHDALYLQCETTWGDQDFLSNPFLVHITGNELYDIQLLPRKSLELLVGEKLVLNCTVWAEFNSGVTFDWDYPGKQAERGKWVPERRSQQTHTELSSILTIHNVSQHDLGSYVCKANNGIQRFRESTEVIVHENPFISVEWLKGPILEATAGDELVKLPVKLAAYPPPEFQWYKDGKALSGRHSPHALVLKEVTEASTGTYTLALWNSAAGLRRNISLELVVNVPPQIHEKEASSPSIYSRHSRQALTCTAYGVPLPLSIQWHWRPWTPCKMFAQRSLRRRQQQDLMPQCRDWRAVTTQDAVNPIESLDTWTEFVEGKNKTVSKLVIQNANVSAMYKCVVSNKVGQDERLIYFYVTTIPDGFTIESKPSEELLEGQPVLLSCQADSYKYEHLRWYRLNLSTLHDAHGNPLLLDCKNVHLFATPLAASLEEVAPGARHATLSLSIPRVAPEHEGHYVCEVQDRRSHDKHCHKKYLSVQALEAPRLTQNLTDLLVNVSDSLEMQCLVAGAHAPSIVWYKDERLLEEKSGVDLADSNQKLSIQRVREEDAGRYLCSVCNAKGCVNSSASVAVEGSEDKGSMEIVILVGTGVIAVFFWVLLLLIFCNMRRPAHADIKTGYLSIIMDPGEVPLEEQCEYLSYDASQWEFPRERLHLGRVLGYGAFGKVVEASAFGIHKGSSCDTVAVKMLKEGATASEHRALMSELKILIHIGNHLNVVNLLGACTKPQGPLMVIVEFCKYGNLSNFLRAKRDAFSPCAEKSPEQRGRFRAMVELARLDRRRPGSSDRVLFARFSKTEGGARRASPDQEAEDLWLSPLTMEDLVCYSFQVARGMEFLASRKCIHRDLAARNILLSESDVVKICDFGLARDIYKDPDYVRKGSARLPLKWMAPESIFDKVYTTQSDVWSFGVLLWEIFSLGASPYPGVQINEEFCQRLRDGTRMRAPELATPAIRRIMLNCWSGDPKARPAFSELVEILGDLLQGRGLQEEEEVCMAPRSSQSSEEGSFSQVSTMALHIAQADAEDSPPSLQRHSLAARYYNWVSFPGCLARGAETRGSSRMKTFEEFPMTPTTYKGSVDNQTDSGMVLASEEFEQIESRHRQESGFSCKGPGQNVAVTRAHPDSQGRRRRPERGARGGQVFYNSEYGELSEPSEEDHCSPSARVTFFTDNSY

SMILES	remaining activity at 5 µM [1] [%]	remaining activity at 5 µM [2] [%]	remaining activity at 5 µM [3] [%]	remaining activity at 5 µM [4] [%]	remaining activity at 5 µM [5] [%]	remaining activity at 5 µM [6] [%]	remaining activity at 5 µM [7] [%]	remaining activity at 5 µM [8] [%]	remaining activity at 5 µM [9] [%]	remaining activity at 5 µM [10] [%]	remaining activity at 5 µM [11] [%]	also measured
O=C(Nc1cnn(-c2csc(C(=O)NC3COC3)c2)c1)Nc1ccccc1Cl [Compound 17, 4-(4-(3-(2-chlorophenyl)ureido)-1H-pyrazol-1-yl)-N-(oxetan-3-yl)thiophene-2-carboxamide]	93.8	105	101	98.7	98	91.9	90.7	101	101	102	99.8	
O=C(Nc1cnn(-c2csc(C(=O)NC3COC3)c2)c1)Nc1c(F)cccc1Cl [Compound 25, 4-(4-(3-(2-chloro-6-fluorophenyl)ureido)-1H-pyrazol-1-yl)-N-(oxetan-3-yl)thiophene-2-carboxamide]	86.6	95.7	99.6	104	98.3	89.8	99.8	86.1	89.8	88.1	96.6	
Cc1sc(C(=O)NC2COC2)cc1-n1cc(NC(=O)Nc2c(F)cccc2Cl)cn1 [Compound 27, 4-(4-(3-(2-chloro-6-fluorophenyl)ureido)-1H-pyrazol-1-yl)-5-methyl-N-(oxetan-3-yl)thiophene-2-carboxamide]												remaining activity at 10 µM ([1]; 10 uM): 81.9%; remaining activity at 10 µM ([2]; 10 uM): 108%; remaining activity at 10 µM ([3]; 10 uM): 99.2%; remaining activity at 10 µM ([4]; 10 uM): 96.9%; remaining activity at 10 µM ([5]; 10 uM): 102%; remaining activity at 10 µM ([6]; 10 uM): 98.9%; remaining activity at 10 µM ([7]; 10 uM): 105%; remaining activity at 10 µM ([8]; 10 uM): 84.1%; remaining activity at 10 µM ([9]; 10 uM): 90%; remaining activity at 10 µM ([10]; 10 uM): 100%; remaining activity at 10 µM ([11]; 10 uM): 111%
